Reference: PubChem BioAssay AID1963866 (Molecular Pharmacology Branch, DTP, NCI, 2024)

Test system: PDC KRAS tumor spheroids with HUVEC/MSC, viability
Experiment: Anticancer human tumor 349418-098-R-PDC patient-derived lung adenocarcinoma cell line growth inhibition [KRAS2]
Settings: for IC50: curve of first compound; for viability, T/C: stronger effect = lower value
Outline: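 KRAS-mutant tumor cells were grown as spheroids with HUVEC endothelial cells and human MSCs as stroma. Targeted agents were tested alone and with KRAS pathway inhibitors. Doses started at or near clinical Cmax, or 10 microM, descending half-log.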

[1] = second compound 0.1 µM, first compound 0.0316 µM
[2] = second compound 0.1 µM, first compound 0.1 µM
[3] = second compound 0.316 µM, first compound 0.0316 µM
[4] = second compound 0.316 µM, first compound 0.1 µM
[5] = second compound 1 µM, first compound 0.0316 µM
[6] = second compound 1 µM, first compound 0.1 µM
[7] = second compound 3.16 µM, first compound 0.0316 µM
[8] = second compound 3.16 µM, first compound 0.1 µM
[9] = second compound 10 µM, first compound 0.0316 µM
[10] = second compound 10 µM, first compound 0.1 µM
[11] = second compound 0.1 µM, first compound 0.316 µM
[12] = second compound 0.1 µM, first compound 1 µM
[13] = second compound 0.1 µM, first compound 3.16 µM
[14] = second compound 0.1 µM, first compound 10 µM
[15] = second compound 0.316 µM, first compound 0.316 µM
[16] = second compound 0.316 µM, first compound 1 µM
[17] = second compound 0.316 µM, first compound 3.16 µM
[18] = second compound 0.316 µM, first compound 10 µM
[19] = second compound 1 µM, first compound 0.316 µM
[20] = second compound 1 µM, first compound 1 µM
[21] = second compound 1 µM, first compound 3.16 µM
[22] = second compound 1 µM, first compound 10 µM
[23] = second compound 3.16 µM, first compound 0.316 µM
[24] = second compound 3.16 µM, first compound 1 µM
[25] = second compound 3.16 µM, first compound 3.16 µM
[26] = second compound 3.16 µM, first compound 10 µM
[27] = second compound 10 µM, first compound 0.316 µM
[28] = second compound 10 µM, first compound 1 µM
[29] = second compound 10 µM, first compound 3.16 µM
[30] = second compound 10 µM, first compound 10 µM
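Note: spheroids exposed to compounds for seven days before readout.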

Row | SMILES | IC50 (second compound 0.1 µM) | IC50 (second compound 0.316 µM) | IC50 (second compound 1 µM) | IC50 (second compound 3.16 µM) | IC50 (second compound 10 µM) | viability, T/C [1] | viability, T/C [2] | viability, T/C [3] | viability, T/C [4] | viability, T/C [5] | viability, T/C [6] | viability, T/C [7] | viability, T/C [8] | viability, T/C [9] | viability, T/C [10] | viability, T/C [11] | viability, T/C [12] | viability, T/C [13] | viability, T/C [14] | viability, T/C [15] | other results
1 | CC(C)n1nc(-c2ccc3oc(N)nc3c2)c2c(N)ncnc21 + CNCc1ccccc1-c1csc(C(C)Nc2nc(C)nc3cc(OC)c(OC)cc23)c1 | 0.987 nM | 0.883 nM | 0.558 nM | < 0.316 nM | < 0.316 nM | 8.36% | 7.55% | 7.42% | 6.91% | 5.59% | 6.98% | 0.06% | 0.13% | 0.09% | 0.15% | – | – | – | – | – | viability, T/C (second compound 0.1 µM, first compound 0.000316 µM): 103%; viability, T/C (second compound 0.1 µM, first compound 0.001 µM): 49.1%; viability, T/C (second compound 0.1 µM, first compound 0.00316 µM): 20.9%; viability, T/C (second compound 0.1 µM, first compound 0.01 µM): 8.09%; viability, T/C (second compound 0.316 µM, first compound 0.000316 µM): 106%; viability, T/C (second compound 0.316 µM, first compound 0.001 µM): 43.2%; viability, T/C (second compound 0.316 µM, first compound 0.00316 µM): 13.3%; viability, T/C (second compound 0.316 µM, first compound 0.01 µM): 8.02%; viability, T/C (second compound 1 µM, first compound 0.000316 µM): 73.1%; viability, T/C (second compound 1 µM, first compound 0.001 µM): 26.3%; viability, T/C (second compound 1 µM, first compound 0.00316 µM): 9.14%; viability, T/C (second compound 1 µM, first compound 0.01 µM): 7.12%; viability, T/C (second compound 3.16 µM, first compound 0.000316 µM): 0.08%; viability, T/C (second compound 3.16 µM, first compound 0.001 µM): 0.18%; viability, T/C (second compound 3.16 µM, first compound 0.00316 µM): 0.03%; viability, T/C (second compound 3.16 µM, first compound 0.01 µM): 0.06%; viability, T/C (second compound 10 µM, first compound 0.000316 µM): 0.08%; viability, T/C (second compound 10 µM, first compound 0.001 µM): 0.08%; viability, T/C (second compound 10 µM, first compound 0.00316 µM): 0.07%; viability, T/C (second compound 10 µM, first compound 0.01 µM): 0.09%
2 | CC1(C)CCC(CN2CCN(c3ccc(C(=O)NS(=O)(=O)c4ccc(NCC5CCOCC5)c([N+](=O)[O-])c4)c(Oc4cnc5[nH]ccc5c4)c3)CC2)=C(c2ccc(Cl)cc2)C1 + CNCc1ccccc1-c1csc(C(C)Nc2nc(C)nc3cc(OC)c(OC)cc23)c1 | 1790 nM | 1690 nM | 1280 nM | < 31.6 nM | < 31.6 nM | 101% | 99.7% | 97% | 96.4% | 74.1% | 66.9% | 0.13% | 0.14% | 0.11% | 0.12% | 94.6% | 89.7% | 11.3% | 5.21% | 87% | viability, T/C [16]: 82.6%; viability, T/C [17]: 11.5%; viability, T/C [18]: 3.91%; viability, T/C [19]: 72%; viability, T/C [20]: 61.6%; viability, T/C [21]: 6.96%; viability, T/C [22]: 2.51%; viability, T/C [23]: 0.11%; viability, T/C [24]: 0.12%; viability, T/C [25]: 0.12%; viability, T/C [26]: 0.15%; viability, T/C [27]: 0.1%; viability, T/C [28]: 0.09%; viability, T/C [29]: 0.08%; viability, T/C [30]: 0.15%
3 | COc1cc(Nc2ncc3c(n2)-c2ccc(Cl)cc2C(c2c(F)cccc2OC)=NC3)ccc1C(=O)O + CNCc1ccccc1-c1csc(C(C)Nc2nc(C)nc3cc(OC)c(OC)cc23)c1 | < 31.6 nM | < 31.6 nM | < 31.6 nM | < 31.6 nM | < 31.6 nM | 51.9% | 26.1% | 51.1% | 26.1% | 40.2% | 23.6% | 0.15% | 0.11% | 0.08% | 0.07% | 38.8% | 36.7% | 32.7% | 24.8% | 35.7% | viability, T/C [16]: 32.2%; viability, T/C [17]: 32.8%; viability, T/C [18]: 28.8%; viability, T/C [19]: 32.4%; viability, T/C [20]: 26.8%; viability, T/C [21]: 25.9%; viability, T/C [22]: 26.7%; viability, T/C [23]: 0.14%; viability, T/C [24]: 0.14%; viability, T/C [25]: 0.08%; viability, T/C [26]: 0.29%; viability, T/C [27]: 0.08%; viability, T/C [28]: 0.08%; viability, T/C [29]: 0.08%; viability, T/C [30]: 0.13%
4 | COc1cc2nccc(Oc3ccc(NC(=O)C4(C(=O)Nc5ccc(F)cc5)CC4)cc3)c2cc1OC + CNCc1ccccc1-c1csc(C(C)Nc2nc(C)nc3cc(OC)c(OC)cc23)c1 | 1570 nM | 1640 nM | 596 nM | < 31.6 nM | < 31.6 nM | 101% | 99.5% | 97.4% | 95% | 95.4% | 93.9% | 0.14% | 0.09% | 0.08% | 0.07% | 95.4% | 73.3% | 9.71% | 18.6% | 85.5% | viability, T/C [16]: 79.6%; viability, T/C [17]: 7.07%; viability, T/C [18]: 14.3%; viability, T/C [19]: 78.4%; viability, T/C [20]: 26.9%; viability, T/C [21]: 0.88%; viability, T/C [22]: 1.04%; viability, T/C [23]: 0.12%; viability, T/C [24]: 0.04%; viability, T/C [25]: 0.12%; viability, T/C [26]: 0.08%; viability, T/C [27]: 0.08%; viability, T/C [28]: 0.24%; viability, T/C [29]: 0.07%; viability, T/C [30]: 0.13%
